Test results taken from the NIST ThermoML archive (doi:10.1021/je900665a).

Conditions: Capillary rise

CCOCC [diethyl ether]
Conditions | surface tension liquid-gas [mN/m]
258.17 K | 21.49
263.17 K | 20.76
268.18 K | 20.13
273.18 K | 19.62
278.18 K | 18.97
283.18 K | 18.46
288.18 K | 17.82
293.16 K | 17.15
298.1 K | 16.58
303.17 K | 16
308.11 K | 15.44
313.19 K | 14.87
318.16 K | 14.14
323.16 K | 13.61
328.12 K | 12.96
333.18 K | 12.46
338.17 K | 11.92
343.17 K | 11.28
348.17 K | 10.75
353.19 K | 10.19
358.18 K | 9.575
363.16 K | 9.014
368.18 K | 8.459
373.17 K | 7.914

CC(C)OC(C)C [diisopropyl ether]
Conditions | surface tension liquid-gas [mN/m]
248.07 K | 22.7
253.23 K | 22.06
258.1 K | 21.55
263.18 K | 21.02
268.33 K | 20.52
273.46 K | 19.93
278.5 K | 19.26
283.18 K | 18.81
288.18 K | 18.3
293.16 K | 17.82
298.1 K | 17.26
303.17 K | 16.76
308.08 K | 16.18
313.27 K | 15.66
318.17 K | 15.09
323.19 K | 14.58
328.12 K | 14.1
333.12 K | 13.68
338.11 K | 13.15
343.1 K | 12.57
348.1 K | 12.11
353.1 K | 11.57
358.15 K | 11.01
363.17 K | 10.56
368.17 K | 10.04
373.17 K | 9.698

CCCCCCC [heptane]
Conditions | surface tension liquid-gas [mN/m]
298.13 K | 20
303.18 K | 19.58
308.12 K | 18.97
313.18 K | 18.41
318.17 K | 17.97
323.2 K | 17.48
328.15 K | 16.92
